# Measurements taken from US12473266B2, “Benzoxazole and related compounds useful as chaperone-mediated autophagy modulators” (Albert Einstein College of Medicine, priority 2018, dated 2025).
# What was measured:
# [1] = tested on: CMA activity (KFERQ-Dendra reporter) in NIH 3T3 fibroblasts; assay: Photoconvertible CMA reporter (KFERQ-Dendra) assay, fluorescent puncta per cell; type: cell-based; conditions: NIH 3T3 KFERQ-Dendra; for effect on the number of fluorescent puncta per cell: result in words
# Protocol: The photoactivatable CMA reporter assay was constructed by inserting a sequence of 21 amino acid of Ribonuclease A bearing the CMA-targeting motif in the N-terminus multicloning site of the photoactivatable protein mCherry1 or the photoswitchable protein Dendra 2.
# NIH 3T3 fibroblasts were stably transduced with a photoconvertible CMA reporter, KFERQ-Dendra and were photoswitched by exposure to a […] (constant current) LED (Norlux, 405 nm) for 10 minutes and at the desired times fixed in 3% formaldehyde. Test cells are exposed to the indicated concentrations of the compounds, e.g. for 12 hours or 24 hours. Cells are imaged, e.g., by using high content microscopy (Operetta, Perkin Elmer) or by capturing images with an Axiovert 200 fluorescence microscope (Zeiss) with apotome and equipped with a 63×1.4 NA oil objective lens and red (ex. 570/30 nm, em. 615/30 nm), cyan (ex. 365/50 nm and em. 530/45 nm) and green (ex. 475/40 nm and em. 535/45 nm) filter sets (Chroma). Images were acquired with a high-resolution CCD camera after optical sectioning through the apotome. CMA activity is measured as the average number of fluorescent puncta (CMA active lysosomes) per cell. Values are expressed relative to values in untreated cells that were assigned an arbitrary value of 1 and are mean of >2,500 cells counted per condition. The S.D. in all instances was <0.01% mean value.
# in vitro = assay: in vitro
# Protocol: Microsome stability is determined in human, rat, and mouse, liver microsomes.
# Compound at 3 μM final concentration along with 0.5 mg/mL microsome protein and 1 mM NADPH was incubated for 0, 5, 15, 30 and 60 min. As a negative control, test compound is incubated with microsomes in the absence of NADPH. Samples are quenched with methanol and centrifuged for 25 min at 2500 rpm to precipitate proteins. Supernatants are analyzed (N=3) by LC-MS./MS. The ln peak area ratio (compound peak area/internal standard peak area) is plotted against time and the gradient of the line determined the elimination rate constant [k=(−1)(slope)].
# R^2 is the correlation coefficient of the linear regression for the determination of kinetic constant. T1/2 is the half life and CLint (mic) is the intrinsic clearance. CLint(liver)=CLint (mic)*mg microsomal protein/g liver weight*g liver weight/kg body weight. Liver weight/kg body weight is 20 g/kg for human.
smiles,measurement,setting,value
"Clc1ccc2nc(-c3ccc(-c4ccccc4)cc3)oc2c1 [Cmp. 1, 2-([1,1′-biphenyl]-4-yl)-6-chlorobenzo[d]oxazole]","CMA activity, average number of fluorescent puncta (CMA active lysosomes) per cell, relative to untreated cells (=1)",[1]; column 'Time' = 5,2.43
same,"CMA activity, average number of fluorescent puncta (CMA active lysosomes) per cell, relative to untreated cells (=1)",[1]; column 'Time' = 10,2.16
same,"CMA activity, average number of fluorescent puncta (CMA active lysosomes) per cell, relative to untreated cells (=1)",[1]; column 'Time' = 20,2.98
same,"CMA activity, average number of fluorescent puncta (CMA active lysosomes) per cell, relative to untreated cells (=1)",[1]; column 'Time' = 30,3.22
same,CLint scaled at 3 μM,"in vitro; human, microsomes",< 8.6 mL/min/kg
same,half-life at 3 μM,"in vitro; human, microsomes",> 2.42 h
same,CLint(mic),"in vitro; human, microsomes, 3 μM",< 9.6 µL/min/mg
same,Remaining (T = 60 min),"in vitro; human, microsomes, 1 h, 3 μM",83.4%
"CC(=O)Nc1ccc(-c2nc3ccc(Cl)cc3o2)cc1 [Cmp. 2, N-(4-(6-chlorobenzo[d]oxazol-2-yl)phenyl)acetamide]","CMA activity, average number of fluorescent puncta (CMA active lysosomes) per cell, relative to untreated cells (=1)",[1]; column 'Time' = 5,2.72
same,"CMA activity, average number of fluorescent puncta (CMA active lysosomes) per cell, relative to untreated cells (=1)",[1]; column 'Time' = 10,2.63
same,"CMA activity, average number of fluorescent puncta (CMA active lysosomes) per cell, relative to untreated cells (=1)",[1]; column 'Time' = 20,3.40
same,"CMA activity, average number of fluorescent puncta (CMA active lysosomes) per cell, relative to untreated cells (=1)",[1]; column 'Time' = 30,5.12
"O=C(Nc1ccc(-c2nc3ccc(Cl)cc3o2)cc1)C(F)(F)F [Cmp. 3, N-(4-(6-chlorobenzo[d]oxazol-2-yl)phenyl)-2,2,2-trifluoroacetamide]",effect on the number of fluorescent puncta per cell,[1],positive effect
"CC(C)CC(=O)Nc1ccc(-c2nc3ccc(Cl)cc3o2)cc1 [Cmp. 5, N-(4-(6-chlorobenzo[d]oxazol-2-yl)phenyl)-3-methylbutanamide]",effect on the number of fluorescent puncta per cell,[1],positive effect
"O=C(Nc1ccc(-c2nc3ccc(Cl)cc3o2)cc1)c1ccc(F)cc1 [Cmp. 6, N-(4-(6-chlorobenzo[d]oxazol-2-yl)phenyl)-4-fluorobenzamide]",effect on the number of fluorescent puncta per cell,[1],positive effect
"O=S(=O)(Nc1ccc(-c2nc3ccc(Cl)cc3o2)cc1)c1ccc(F)cc1 [Cmp. 7, N-(4-(6-chlorobenzo[d]oxazol-2-yl)phenyl)-4-fluorobenzenesulfonamide]",effect on the number of fluorescent puncta per cell,[1],positive effect
"O=S(=O)(Nc1ccc(-c2nc3ccc(Cl)cc3o2)cc1)C(F)(F)F [Cmp. 8, N-(4-(6-chlorobenzo[d]oxazol-2-yl)phenyl)-1,1,1-trifluoromethanesulfonamide]",effect on the number of fluorescent puncta per cell,[1],positive effect
"FC(F)(F)c1ccc(-c2ccc(-c3nc4ccc(Cl)cc4o3)cc2)cc1 [Cmp. 10, 6-chloro-2-(4′-trifluoromethyl-[1,1′-biphenyl]-4-yl)benzo[d]oxazole]",effect on the number of fluorescent puncta per cell,[1],positive effect
"O=C(Nc1ccc(-c2nc3cc(Cl)ccc3o2)cc1)C(F)(F)F [Cmp. 13, N-(4-(5-chlorobenzo[d]oxazol-2-yl)phenyl)-2,2,2-trifluoroacetamide]",effect on the number of fluorescent puncta per cell,[1],positive effect
"O=C(Nc1ccc(-c2ccc(-c3nc4cc(Cl)ccc4o3)cc2)cc1)C(F)(F)F [Cmp. 14, N-(4′-(5-chlorobenzo[d]oxazol-2-yl)-[1,1′-biphenyl]-4-yl)-2,2,2-trifluoroacetamide]",effect on the number of fluorescent puncta per cell,[1],positive effect
Clc1ccc2c(c1)OCC(c1ccc(-c3ccccc3)cc1)=N2 [Cmp. A],CLint(mic),"in vitro; human, microsomes, 3 μM",36.6 µL/min/mg
same,Remaining (T = 60 min),"in vitro; human, microsomes, 1 h, 3 μM",30.1%
O=C(O)Cc1ccccc1Nc1c(Cl)cccc1Cl [Diclofenac],Remaining (T = 60 min),"in vitro; human, microsomes, 1 h, 3 μM",6.8%
C[C@]12CC[C@H]3[C@@H](CCC4=CC(=O)CC[C@@]43C)[C@@H]1CC[C@@H]2O [Testosterone],Remaining (T = 60 min),"in vitro; human microsomes, 60 min incubation",4.6%
